Several values for one entry are separate records, joined by “and”; a condition that tells them apart may be missing. Equal entries are not always repeated. Toxic doses and inconclusive results are not listed.
Test system: P388 leukemia ip, CD2F1 mice, survival T/C
Test: NCI In Vivo Anticancer Drug Screen. Data for tumor model P388 Leukemia (intraperitoneal) in CD2F1 (CDF1) mice
Conditions: endpoint: median survival time, higher = longer survival
How it was run: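 Mice carrying the transplanted tumor received test compound or vehicle. Survival was recorded in each group, and the value is the treated-group measurement divided by that of the vehicle-treated control group.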

[1] = dose: 100.0 mg/kg/injection, schedule: Q04DX002 (ip), vehicle: saline with Tween-80
[2] = dose: 200.0 mg/kg/injection, schedule: Q04DX002 (ip), vehicle: saline with Tween-80
[3] = dose: 400.0 mg/kg/injection, schedule: Q04DX002 (ip), vehicle: saline with Tween-80

Structure (SMILES): C1=C2COCOC3CCN(C1)C23 (stereo not drawn)
- T/C (dose: 34.32 mg/kg/injection, schedule: Q01DX005 (ip), vehicle: saline): 101 % of control
- T/C (dose: 68.64 mg/kg/injection, schedule: Q01DX005 (ip), vehicle: saline): 107 % of control
- T/C (dose: 137.28 mg/kg/injection, schedule: Q01DX005 (ip), vehicle: saline): 108 % of control

Structure (SMILES): CC1=C2C3OC(=O)C(C)C3CCC2(C)C=C(Br)C1=O (stereo not drawn)
- T/C (dose: 60.0 mg/kg/injection, schedule: Q01DX005 (ip), vehicle: Klucel (hydroxypropylcellulose) (HPC)): 106 % of control
- T/C [1]: 101 % of control
- T/C (dose: 120.0 mg/kg/injection, schedule: Q01DX005 (ip), vehicle: Klucel (hydroxypropylcellulose) (HPC)): 98 % of control
- T/C [2]: 97 % of control
- T/C (dose: 240.0 mg/kg/injection, schedule: Q01DX005 (ip), vehicle: Klucel (hydroxypropylcellulose) (HPC)): 104 % of control
- T/C [3]: 97 % of control

Structure (SMILES): CCCCCCCC/C=C\CCCCCCCC(=O)O
- T/C (dose: 50.0 mg/kg/injection, schedule: Q04DX003 (ip), vehicle: Klucel (hydroxypropylcellulose) (HPC)): 104 % of control
- T/C (dose: 100.0 mg/kg/injection, schedule: Q04DX003 (ip), vehicle: Klucel (hydroxypropylcellulose) (HPC)): 103 % of control and 97 % of control
- T/C (dose: 200.0 mg/kg/injection, schedule: Q04DX003 (ip), vehicle: Klucel (hydroxypropylcellulose) (HPC)): 102 % of control and 93 % of control
- T/C (dose: 400.0 mg/kg/injection, schedule: Q04DX003 (ip), vehicle: Klucel (hydroxypropylcellulose) (HPC)): 92 % of control

Structure (SMILES): CCc1ccccc1N1CCN(C(=O)c2cc(OC)c(OC)c(OC)c2)CC1
- T/C (dose: 12.5 mg/kg/injection, schedule: Q01DX009 (ip), vehicle: Klucel (hydroxypropylcellulose) (HPC)): 95 % of control
- T/C (dose: 12.5 mg/kg/injection, schedule: Q01DX009 (ip), vehicle: saline): 100 % of control and 120 % of control
- T/C (dose: 25.0 mg/kg/injection, schedule: Q01DX009 (ip), vehicle: Klucel (hydroxypropylcellulose) (HPC)): 104 % of control
- T/C (dose: 25.0 mg/kg/injection, schedule: Q01DX009 (ip), vehicle: saline): 102 % of control and 91 % of control
- T/C (dose: 44.0 mg/kg/injection, schedule: Q01DX009 (ip), vehicle: saline with Tween-80): 120 % of control
- T/C (dose: 50.0 mg/kg/injection, schedule: Q01DX009 (ip), vehicle: Klucel (hydroxypropylcellulose) (HPC)): 113 % of control
- T/C (dose: 50.0 mg/kg/injection, schedule: Q01DX009 (ip), vehicle: saline): 102 % of control and 93 % of control
- T/C (dose: 66.0 mg/kg/injection, schedule: Q01DX009 (ip), vehicle: saline with Tween-80): 115 % of control
- T/C (dose: 75.0 mg/kg/injection, schedule: Q04DX003 (ip), vehicle: saline with Tween-80): 109 % of control
- T/C (dose: 100.0 mg/kg/injection, schedule: Q01DX009 (ip), vehicle: saline with Tween-80): 115 % of control
- T/C (dose: 100.0 mg/kg/injection, schedule: Q01DX009 (ip), vehicle: saline): 90 % of control and 93 % of control
- T/C (dose: 100.0 mg/kg/injection, schedule: Q04DX003 (ip), vehicle: saline with Tween-80): 105 % of control
- T/C (dose: 150.0 mg/kg/injection, schedule: Q01DX009 (ip), vehicle: saline with Tween-80): 150 % of control
- T/C (dose: 150.0 mg/kg/injection, schedule: Q04DX003 (ip), vehicle: saline with Tween-80): 114 % of control
- T/C (dose: 200.0 mg/kg/injection, schedule: Q01DX009 (ip), vehicle: Klucel (hydroxypropylcellulose) (HPC)): 92 % of control
- T/C (dose: 200.0 mg/kg/injection, schedule: Q01DX009 (ip), vehicle: saline): 88 % of control
- T/C (dose: 225.0 mg/kg/injection, schedule: Q04DX003 (ip), vehicle: saline with Tween-80): 121 % of control
- T/C (dose: 300.0 mg/kg/injection, schedule: Q04DX003 (ip), vehicle: saline with Tween-80): 100 % of control
- T/C (dose: 400.0 mg/kg/injection, schedule: Q01DX009 (ip), vehicle: saline): 95 % of control

Structure (SMILES): COc1cc(OC2OC(CO)C(O)C(O)C2O)ccc1/C=C\C(=O)c1ccc(O)cc1 (stereo not drawn)
- T/C [1]: 96 % of control
- T/C [2]: 90 % of control
- T/C [3]: 91 % of control

Structure (SMILES): O=C(O)Cc1c[nH]c2c(Cl)ccc(Cl)c12
- T/C (dose: 100.0 mg/kg/injection, schedule: Q01DX001 (ip), vehicle: saline with Tween-80): 101 % of control
- T/C (dose: 200.0 mg/kg/injection, schedule: Q01DX001 (ip), vehicle: saline with Tween-80): 100 % of control

Structure (SMILES): Cn1nc(-c2ccccc2)c(-c2cc(-c3ccccc3)n[nH]2)c(N)c1=O
- T/C (dose: 60.0 mg/kg/injection, schedule: Q01DX005 (ip), vehicle: saline with Tween-80): 87 % of control
- T/C (dose: 120.0 mg/kg/injection, schedule: Q01DX005 (ip), vehicle: saline with Tween-80): 89 % of control
- T/C (dose: 240.0 mg/kg/injection, schedule: Q01DX005 (ip), vehicle: saline with Tween-80): 97 % of control

Structure (SMILES): O=C(Nc1ccc([N+](=O)[O-])cc1)Nc1nccs1
- T/C (dose: 12.5 mg/kg/injection, schedule: Q01DX009 (ip), vehicle: distilled water + Tween-80): 108 % of control and 112 % of control and 115 % of control
- T/C (dose: 25.0 mg/kg/injection, schedule: Q01DX009 (ip), vehicle: distilled water + Tween-80): 120 % of control
- T/C (dose: 50.0 mg/kg/injection, schedule: Q01DX009 (ip), vehicle: distilled water + Tween-80): 119 % of control
